{
  "source": "paper PMC6745035",
  "about": "“Novel tetrahydroacridine derivatives with iodobenzoic moieties induce G0/G1 cell cycle arrest and apoptosis in A549 non-small lung cancer and HT-29 colorectal cancer cells” (Molecular and Cellular Biochemistry, 2019);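 as to Cytoprotection: Toxic mixture Rotenone 30 µM plus Oligomycin A 10 µM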",
  "key": {"A549 cells [1]": {"test_system": "A549 cells", "assay": "MTT cytotoxicity assay, A549", "format": "cell-based, human", "conditions": "Homo sapiens, A549; MTT, 24 h incubation; read-out: IC50 µM ± SD against A549", "excerpt": "A549 cell line (lung carcinoma from human) (European Collection of Cell Culture) and HT-29 cell line (colorectal adenocarcinoma from human) (American Type Culture Collection) were chosen to evaluate the cytotoxicity of novel compounds.\n(§1) The MTT assay was used to evaluate cell metabolic activity. The test principle is based on the determination of cell viability by measuring the metabolic activity in mitochondria. Enzymatically active mitochondria reduce the water-soluble MTT (3-(4,5-dimethylthiazol-2-yl)-2,5 diphenyltetrazoliumbromide) to blue–violet insoluble formazan. The number of viability cells is proportional to the colour intensity determined by photometric measurements (an analytical wavelength 570 nm) after dissolving the formazan in Dimethylsulfoxide (DMSO) (Serva) and Sorensen’s glycine buffer. MTT (Sigma Aldrich) was dissolved in Phosphate Buffered Saline (PBS) (PAN-Biotech) at a concentration of 0.5 mg/mL. Sorensen’s glycine buffer is made of 0.1 M glycine and 0.1 M NaCl, at pH 10.5. Studied compounds were dissolved in DMSO in order to receive stock solutions.\n(§2) For the assay, cells were seeded into 96-well plates at density 10^4 cells per well and cultured for 24 h at 37 °C and 5% CO2. Then medium was removed, and cells were exposed to the 100 µL of the compound solutions over a range of concentrations (final DMSO concentration was below 0.2%) or nothing but culture medium (blank control). Pure DMSO was used as a positive control. After 24 h of incubation with the compound solutions, medium was removed and 50 µL of the MTT solution was added to each well and incubated in the dark for additional 2 h at 37 °C. Then the MTT solution was carefully removed and 100 µL of DMSO was added. Plates were incubated for 10 min at room temperature. Finally, 5 µL of Sorensen Buffer was added to each well. Plate was swayed, and the absorbance was measured by using microplate reader (Synergy H1, BioTek, Winooski, VT, USA) at a wavelength of 570 nm. The cell viability was expressed as a percentage of the control values (blank). The experiments were done in triplicate."}, "HT-29 cells": {"test_system": "HT-29 cells", "assay": "MTT cytotoxicity assay, HT-29", "format": "cell-based", "conditions": "Homo sapiens, HT-29; MTT, 24 h incubation; read-out: IC50 µM ± SD against HT-29", "excerpt": "as §1, §2"}, "EA.hy926 cells": {"test_system": "EA.hy926 cells", "assay": "MTT cytotoxicity assay, EA.hy926", "format": "cell-based, human", "conditions": "Homo sapiens, EA.hy 926; MTT, 24 h incubation; read-out: IC50 µM ± SD against EA.hy926", "excerpt": "The EA.hy926 cells (the human umbilical vein, somatic cell hybrid) (American Type Culture Collection) are immortalized human umbilical vein endothelial cells. They have morphological, phenotypic and functional characteristics of human endothelial cells, without the limited lifespan. This cell line has been considered as a good model for anticancer drug screening and was chosen to evaluate the endothelial cytotoxicity of novel compounds.\nas §1, §2"}, "A549 cells [2]": {"test_system": "A549 cells", "assay": "Apoptosis assay by annexin-V/PI double staining, A549", "format": "cell-based, human", "conditions": "A549, 24 h, compound at 2xIC50 (1i 29.74 µM); control 7.80%", "description": "Compounds were added to the cells and further incubated for 24 h. After treatment, monolayer and supernatant cells were harvested, washed with PBS and centrifuged (monolayer at 1200 rpm for 10 min, supernatant at 3500 rpm for 10 min). Then, cells were re-suspended in binding buffer and stained with 2 µL of Annexin-V and […] of PI (ANNEXIN-V—FITC Apoptosis Detection Kit, Immunostep) in the dark for 10 min at room temperature. Cells were analysed by BD Accuri C6 Flow Cytometry (Becton–Dickinson). Etoposide (Calbiochem) was used as a reference drug. Experiments were done in triplicates."}, "[3]": {"molecular_target": "T1, hyaluronidase from bovine testes Type I-S (Bos taurus, UniProt Q2YDK3)", "T1 construct": "purchased Sigma Aldrich; host or cells: bovine testes (tissue-derived preparation)", "T1 sequence (Q2YDK3 36-553)": "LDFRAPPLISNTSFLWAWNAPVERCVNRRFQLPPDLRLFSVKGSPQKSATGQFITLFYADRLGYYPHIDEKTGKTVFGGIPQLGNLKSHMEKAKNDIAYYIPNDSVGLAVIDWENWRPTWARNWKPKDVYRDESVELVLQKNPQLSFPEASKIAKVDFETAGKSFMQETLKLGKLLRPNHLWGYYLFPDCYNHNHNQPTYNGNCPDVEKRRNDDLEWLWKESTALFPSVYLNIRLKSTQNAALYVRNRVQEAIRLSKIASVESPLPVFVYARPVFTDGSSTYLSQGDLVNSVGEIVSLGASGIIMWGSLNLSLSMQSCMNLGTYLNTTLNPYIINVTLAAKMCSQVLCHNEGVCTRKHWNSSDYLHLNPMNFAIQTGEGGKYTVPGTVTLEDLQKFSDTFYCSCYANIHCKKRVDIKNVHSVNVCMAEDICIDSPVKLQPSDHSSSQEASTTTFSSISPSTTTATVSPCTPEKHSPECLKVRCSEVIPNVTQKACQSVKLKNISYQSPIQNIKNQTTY", "assay": "Hyaluronidase inhibition assay (turbidimetric)", "format": "biochemical", "conditions": "read-out: HYAL IC50 ± SD"}, "SH-SY5Y cells [4]": {"test_system": "SH-SY5Y cells", "assay": "Cytoprotection against rotenone/oligomycin A, pre-incubation, MTT", "format": "cell-based, human", "conditions": "for Cytoprotective properties in the pre-incubation assay (in words): rotenone/oligomycin A, range of concentration 1–0.001 µM; for Cytoprotection: pre-incubation with rotenone/oligomycin A", "description": "Rotenone with oligomycin A (R/O) were taken to induce mitochondrial ROS by blocking of complexes I and V of the mitochondrial electron transport chain. It causes free radical production and blockade of ATP synthesis. In the pre-incubation experiment, it could be assessed whether the compounds have cytoprotective properties due to the activation of endogenous antioxidant pathways. In the co-incubation could be shown whether compounds are free-radical scavengers. MTT assay was a test of choice, because in this assay mitochondrial activity is measured. […] It can be determined whether novel compound would protect cells from both apoptotic and necrotic death resulting from the increase of intracellular ROS. In both experiments, trolox was used as a reference compound. […] After this time, toxic mixture was added, and cells were maintained for an additional 24 h in the presence of the compounds."}, "SH-SY5Y cells [5]": {"test_system": "SH-SY5Y cells", "assay": "Cytoprotection against H2O2 (100 µM), MTT", "conditions": "for Cells viability (%) ± SD after 24 h of incubation with compound and H2O2: H2O2 100 µM, H2O2 only 82.74%"}, "supercoiled pUC19 DNA": {"test_system": "supercoiled pUC19 DNA", "conditions": "100 µM; human Topoisomerase I"}, "[6]": {"conditions": "Homo sapiens, 24 h, read-out: Cells viability (%) ± SD after 24 h of incubation with compound and H2O2"}},
  "data": [
    {"smiles": "O=C(NCCCNc1c2c(nc3ccccc13)CCCC2)c1ccccc1I", "note": "[Compound 1b]", "values": [
      {"measurement": "IC50", "setting": "A549 cells [1]", "value": "32.5 ± 2.25", "unit": "µM"},
      {"measurement": "IC50", "setting": "HT-29 cells", "value": "16.1 ± 1.55", "unit": "µM"},
      {"measurement": "IC50", "setting": "EA.hy926 cells", "value": "22.4 ± 2.3", "unit": "µM"},
      {"measurement": "Total apoptotic cells", "setting": "A549 cells [2]", "value": 45.31, "unit": "%"},
      {"measurement": "IC50", "setting": "[3]", "value": "233 ± 4.87", "unit": "µM"},
      {"measurement": "Cytoprotective properties in the pre-incubation assay (in words)", "setting": "SH-SY5Y cells [4]", "value": "did not show cytoprotective properties"},
      {"measurement": "Cells viability (%) ± SD after 24 h of incubation with compound and H2O2", "setting": "SH-SY5Y cells [5]; concentration: 1b 16.26, 1c 6.79, 1e 11.75, 1f 4.26, 1i 5.90 µM", "value": "64.61 ± 4.88", "unit": "%"},
      {"measurement": "Cells viability (%) ± SD after 24 h of incubation with compound and H2O2", "setting": "SH-SY5Y cells [5]; concentration: 1b 65.04, 1c 27.16, 1e 46.98, 1f 17.04, 1i 29.74 µM", "value": "17.21 ± 1.18", "unit": "%"},
      {"measurement": "viability at 1 µM", "setting": "SH-SY5Y cells [5]; [6]", "value": "99.2 ± 1.67", "unit": "%"},
      {"measurement": "Intercalation: supercoiled pUC19 DNA band (in words)", "setting": "supercoiled pUC19 DNA", "value": "bands at the same level as EB"}
    ]},
    {"smiles": "O=C(NCCCCNc1c2c(nc3ccccc13)CCCC2)c1ccccc1I", "note": "[Compound 1c]", "values": [
      {"measurement": "IC50", "setting": "A549 cells [1]", "value": "59.1 ± 5.86", "unit": "µM"},
      {"measurement": "IC50", "setting": "HT-29 cells", "value": "13.6 ± 1.39", "unit": "µM"},
      {"measurement": "IC50", "setting": "EA.hy926 cells", "value": "14.3 ± 1.65", "unit": "µM"},
      {"measurement": "IC50", "setting": "[3]", "value": "244 ± 7.95", "unit": "µM"},
      {"measurement": "Cytoprotection", "setting": "SH-SY5Y cells [4]; 0.001 µM", "value": 32.91, "unit": "%"},
      {"measurement": "Cytoprotection", "setting": "SH-SY5Y cells [4]; 0.01 µM", "value": 37.05, "unit": "%"},
      {"measurement": "Cytoprotection", "setting": "SH-SY5Y cells [4]; 0.1 µM", "value": 33.15, "unit": "%"},
      {"measurement": "Cytoprotection", "setting": "SH-SY5Y cells [4]; 1 µM", "value": 33.92, "unit": "%"},
      {"measurement": "Cytoprotective properties in the pre-incubation assay (in words)", "setting": "SH-SY5Y cells [4]", "value": "showed their action against oxidative stress in the whole range of concentrations"},
      {"measurement": "viability at 1 µM", "setting": "SH-SY5Y cells [5]; [6]", "value": "101 ± 1.19", "unit": "%"},
      {"measurement": "Intercalation: supercoiled pUC19 DNA band (in words)", "setting": "supercoiled pUC19 DNA", "value": "bands at the same level as EB"}
    ]},
    {"smiles": "O=C(NCCCNc1c2c(nc3ccccc13)CCCC2)c1cccc(I)c1", "note": "[Compound 1e]", "values": [
      {"measurement": "IC50", "setting": "A549 cells [1]", "value": "23.5 ± 2.6", "unit": "µM"},
      {"measurement": "IC50", "setting": "HT-29 cells", "value": "11 ± 0.59", "unit": "µM"},
      {"measurement": "IC50", "setting": "EA.hy926 cells", "value": "11.7 ± 0.62", "unit": "µM"},
      {"measurement": "Total apoptotic cells", "setting": "A549 cells [2]", "value": 44.96, "unit": "%"},
      {"measurement": "IC50", "setting": "[3]", "value": "231 ± 5.64", "unit": "µM"},
      {"measurement": "Cytoprotection", "setting": "SH-SY5Y cells [4]; 0.001 µM", "value": 36.22, "unit": "%"},
      {"measurement": "Cytoprotection", "setting": "SH-SY5Y cells [4]; 0.01 µM", "value": 51.19, "unit": "%"},
      {"measurement": "Cytoprotection", "setting": "SH-SY5Y cells [4]; 0.1 µM", "value": 46.39, "unit": "%"},
      {"measurement": "Cytoprotection", "setting": "SH-SY5Y cells [4]; 1 µM", "value": 24.79, "unit": "%"},
      {"measurement": "Cytoprotective properties in the pre-incubation assay (in words)", "setting": "SH-SY5Y cells [4]", "value": "showed their action against oxidative stress in the whole range of concentrations"},
      {"measurement": "viability at 1 µM", "setting": "SH-SY5Y cells [5]; [6]", "value": "89.8 ± 8.55", "unit": "%"},
      {"measurement": "Intercalation: supercoiled pUC19 DNA band (in words)", "setting": "supercoiled pUC19 DNA", "value": "bands at the same level as EB"}
    ]},
    {"smiles": "O=C(NCCCCNc1c2c(nc3ccccc13)CCCC2)c1ccc(I)cc1", "note": "[Compound 1i]", "values": [
      {"measurement": "IC50", "setting": "A549 cells [1]", "value": "14.9 ± 1.06", "unit": "µM"},
      {"measurement": "IC50", "setting": "HT-29 cells", "value": "5.9 ± 0.42", "unit": "µM"},
      {"measurement": "IC50", "setting": "EA.hy926 cells", "value": "11.3 ± 0.89", "unit": "µM"},
      {"measurement": "Total apoptotic cells", "setting": "A549 cells [2]", "value": 71.98, "unit": "%"},
      {"measurement": "IC50", "setting": "[3]", "value": "234 ± 8.98", "unit": "µM"},
      {"measurement": "Cytoprotective properties in the pre-incubation assay (in words)", "setting": "SH-SY5Y cells [4]", "value": "did not show cytoprotective properties"},
      {"measurement": "Neuroprotection against H2O2 (in words)", "setting": "SH-SY5Y cells [5]; H2O2 100 µM, 29.74, 14.87, 5.90 and 1 µM", "value": "neuroprotection was not observed at any dose"},
      {"measurement": "viability at 1 µM", "setting": "SH-SY5Y cells [5]; [6]", "value": "29.7 ± 3.39", "unit": "%"},
      {"measurement": "viability at 5.9 µM", "setting": "SH-SY5Y cells [5]; [6]", "value": "25.9 ± 1.24", "unit": "%"},
      {"measurement": "viability at 14.87 µM", "setting": "SH-SY5Y cells [5]; [6]", "value": "20.7 ± 1.45", "unit": "%"},
      {"measurement": "viability at 29.74 µM", "setting": "SH-SY5Y cells [5]; [6]", "value": "18.7 ± 1.25", "unit": "%"}
    ]}
  ]
}
